Assay results from US20240358692A1, “TREATMENT OF SCLERODERMA” (Aisa Pharma, Inc., priority 2023, published 2024).

System: participants with SSc-RP
Experiment: Average severity of weekly RP attacks (VAS 0-10)
Format: in vivo, human
Conditions: for Average Severity (0-10) of weekly RP attacks, Median / Average severity of weekly RP attacks, Change from Baseline, Mean / Average severity of weekly RP attacks, Change from Baseline, Median / Average severity of weekly RP attacks, Percent Change from Baseline, Mean / Average severity of weekly RP attacks, Percent Change from Baseline, Median / Average Severity (0-10) of weekly RP attacks, Mean: all attacks
From the text: The absolute change in average severity of weekly RP attacks (VAS 0-10 cm scale) from baseline to the end of each Dosing Period was and will be a secondary outcome variable. The sponsor-developed participant-informed diary will be used to record data. Average severity of weekly RP attacks is defined as the total severity scores of RP attacks divided by total number of RP attacks within the last 7 days of each dosing period. Total severity scores of RP attacks during the last 7 days of screening period divided by the total number of RP attacks will be used as baseline for the analysis of all periods. The variable will be calculated similar to frequency data as before.

[1] = Cilnidipine 10 mg, 1st Baseline RCS subgroup, ITT Part A, last 7 days of dosing period
[2] = Cilnidipine 10 mg, Excluding Outliers, 1st Baseline RCS subgroup, ITT Part A, last 7 days of dosing period
[3] = Cilnidipine 10 mg, ITT Part A, last 7 days of dosing period
[4] = Cilnidipine 10 mg, Excluding Outliers, ITT Part A
[5] = Cilnidipine 10 mg, Excluding Outliers, by Baseline RCS: first subgroup of Table C-8, ITT Part A
[6] = Cilnidipine 10 mg, by Baseline RCS: first subgroup of Table C-7, ITT Part A
[7] = Cilnidipine 10 mg, excluding outliers, ITT Part A
[8] = Cilnidipine 10 mg, excluding outliers, severity 0-10, ITT Part A
[9] = Cilnidipine 10 mg, severity 0-10, ITT Part A
[10] = Cilnidipine 20 mg, 1st Baseline RCS subgroup, ITT Part A, last 7 days of dosing period
[11] = Cilnidipine 20 mg, Excluding Outliers, 1st Baseline RCS subgroup, ITT Part A, last 7 days of dosing period
[12] = Cilnidipine 20 mg, ITT Part A, last 7 days of dosing period
[13] = Cilnidipine 20 mg, Excluding Outliers, ITT Part A
[14] = Cilnidipine 20 mg, Excluding Outliers, by Baseline RCS: first subgroup of Table C-8, ITT Part A
[15] = Cilnidipine 20 mg, by Baseline RCS: first subgroup of Table C-7, ITT Part A
[16] = Cilnidipine 20 mg, excluding outliers, ITT Part A
[17] = Cilnidipine 20 mg, excluding outliers, severity 0-10, ITT Part A
[18] = Cilnidipine 20 mg, severity 0-10, ITT Part A
[19] = Pooled Cilnidipine 10 mg and Cilnidipine 10 mg + Tadalafil 5 mg, 1st Baseline RCS subgroup, ITT Part A, last 7 days of dosing period
[20] = Pooled Cilnidipine 10 mg and Cilnidipine 10 mg + Tadalafil 5 mg, 2nd Baseline RCS subgroup, ITT Part A, last 7 days of dosing period

COCCOC(=O)C1=C(C)NC(C)=C(C(=O)OC/C=C/c2ccccc2)C1c1cccc([N+](=O)[O-])c1 (stereo not shown) [Cilnidipine]
−1.44: Average Severity of Weekly Symptomatic RP Attacks, Change from Baseline, Mean [10] | Average Severity of Weekly Symptomatic RP Attacks, Change from Baseline, Median [10] | Average Severity of Weekly Symptomatic RP Attacks, Change from Baseline, Mean [11] | Average Severity of Weekly Symptomatic RP Attacks, Change from Baseline, Median [11] | Average Severity of Weekly Symptomatic RP Attacks, Change from Baseline, Mean [17] | Average Severity of Weekly Symptomatic RP Attacks, Change from Baseline, Median [17] | Average Severity of Weekly Symptomatic RP Attacks, Change from Baseline, Mean [18] | Average Severity of Weekly Symptomatic RP Attacks, Change from Baseline, Median [18]
−32.85%: Average Severity of Weekly Symptomatic RP Attacks, Percent Change from Baseline, Mean [10] | Average Severity of Weekly Symptomatic RP Attacks, Percent Change from Baseline, Median [10] | Average Severity of Weekly Symptomatic RP Attacks, Percent Change from Baseline, Mean [11] | Average Severity of Weekly Symptomatic RP Attacks, Percent Change from Baseline, Median [11] | Average Severity of Weekly Symptomatic RP Attacks, Percent Change from Baseline, Mean (Cilnidipine 20 mg, ITT Part A) | Average Severity of Weekly Symptomatic RP Attacks, Percent Change from Baseline, Median (Cilnidipine 20 mg, ITT Part A) | Average Severity of Weekly Symptomatic RP Attacks, Percent Change from Baseline, Mean [16] | Average Severity of Weekly Symptomatic RP Attacks, Percent Change from Baseline, Median [16]
−1.13: Average Severity of Weekly Symptomatic RP Attacks, Change from Baseline, Mean [20] | Average Severity of Weekly Symptomatic RP Attacks, Change from Baseline, Median [20]
3.34: Average Severity of Weekly Symptomatic RP Attacks, Mean [19] | Average Severity of Weekly Symptomatic RP Attacks, Median [19]
−27.26%: Average Severity of Weekly RP Attacks (All Attacks), Percent Change from Baseline, Mean [12] | Average Severity of Weekly RP Attacks (All Attacks), Percent Change from Baseline, Median [12] | Average severity of weekly RP attacks, Percent Change from Baseline, Mean [13] | Average severity of weekly RP attacks, Percent Change from Baseline, Median [13] | Average severity of weekly RP attacks, Percent Change from Baseline, Mean [14] | Average severity of weekly RP attacks, Percent Change from Baseline, Median [14] | Average severity of weekly RP attacks, Percent Change from Baseline, Mean [15] | Average severity of weekly RP attacks, Percent Change from Baseline, Median [15]
0.28: Average Severity of Weekly Symptomatic RP Attacks, Change from Baseline, Mean [1] | Average Severity of Weekly Symptomatic RP Attacks, Change from Baseline, Median [1] | Average Severity of Weekly Symptomatic RP Attacks, Change from Baseline, Mean [2] | Average Severity of Weekly Symptomatic RP Attacks, Change from Baseline, Median [2] | Average Severity of Weekly Symptomatic RP Attacks, Change from Baseline, Mean [8] | Average Severity of Weekly Symptomatic RP Attacks, Change from Baseline, Median [8] | Average Severity of Weekly Symptomatic RP Attacks, Change from Baseline, Mean [9] | Average Severity of Weekly Symptomatic RP Attacks, Change from Baseline, Median [9]
0.02: Average Severity of Weekly RP Attacks (All Attacks), Change from Baseline, Mean [3] | Average Severity of Weekly RP Attacks (All Attacks), Change from Baseline, Median [3] | Average severity of weekly RP attacks, Change from Baseline, Mean [4] | Average severity of weekly RP attacks, Change from Baseline, Median [4] | Average severity of weekly RP attacks, Change from Baseline, Mean [5] | Average severity of weekly RP attacks, Change from Baseline, Median [5] | Average severity of weekly RP attacks, Change from Baseline, Mean [6] | Average severity of weekly RP attacks, Change from Baseline, Median [6]
−20.18%: Average Severity of Weekly Symptomatic RP Attacks, Percent Change from Baseline, Mean [19] | Average Severity of Weekly Symptomatic RP Attacks, Percent Change from Baseline, Median [19]
−36%: Severity (change) (Cilnidipine 20 mg (n = 3))
3.05: Average Severity of Weekly RP Attacks (All Attacks), Mean [3] | Average Severity of Weekly RP Attacks (All Attacks), Median [3] | Average Severity (0-10) of weekly RP attacks, Median [4] | Average Severity (0-10) of weekly RP attacks, Mean [5] | Average Severity (0-10) of weekly RP attacks, Median [5] | Average Severity (0-10) of weekly RP attacks, Mean [6] | Average Severity (0-10) of weekly RP attacks, Median [6]
0.55%: Average Severity of Weekly RP Attacks (All Attacks), Percent Change from Baseline, Mean [3] | Average Severity of Weekly RP Attacks (All Attacks), Percent Change from Baseline, Median [3] | Average severity of weekly RP attacks, Percent Change from Baseline, Mean [4] | Average severity of weekly RP attacks, Percent Change from Baseline, Median [4] | Average severity of weekly RP attacks, Percent Change from Baseline, Mean [5] | Average severity of weekly RP attacks, Percent Change from Baseline, Median [5] | Average severity of weekly RP attacks, Percent Change from Baseline, Mean [6] | Average severity of weekly RP attacks, Percent Change from Baseline, Median [6]
−1.07: Average Severity of Weekly RP Attacks (All Attacks), Change from Baseline, Mean [12] | Average Severity of Weekly RP Attacks (All Attacks), Change from Baseline, Median [12] | Average severity of weekly RP attacks, Change from Baseline, Mean [13] | Average severity of weekly RP attacks, Change from Baseline, Median [13] | Average severity of weekly RP attacks, Change from Baseline, Mean [14] | Average severity of weekly RP attacks, Change from Baseline, Median [14] | Average severity of weekly RP attacks, Change from Baseline, Mean [15] | Average severity of weekly RP attacks, Change from Baseline, Median [15]
8.05%: Average Severity of Weekly Symptomatic RP Attacks, Percent Change from Baseline, Mean [1] | Average Severity of Weekly Symptomatic RP Attacks, Percent Change from Baseline, Median [1] | Average Severity of Weekly Symptomatic RP Attacks, Percent Change from Baseline, Mean [2] | Average Severity of Weekly Symptomatic RP Attacks, Percent Change from Baseline, Median [2] | Average Severity of Weekly Symptomatic RP Attacks, Percent Change from Baseline, Mean (Cilnidipine 10 mg, ITT Part A) | Average Severity of Weekly Symptomatic RP Attacks, Percent Change from Baseline, Median (Cilnidipine 10 mg, ITT Part A) | Average Severity of Weekly Symptomatic RP Attacks, Percent Change from Baseline, Mean [7] | Average Severity of Weekly Symptomatic RP Attacks, Percent Change from Baseline, Median [7]
5.23: Average Severity of Weekly Symptomatic RP Attacks, Mean [20] | Average Severity of Weekly Symptomatic RP Attacks, Median [20]
−1.22: Average Severity of Weekly Symptomatic RP Attacks, Change from Baseline, Mean [19] | Average Severity of Weekly Symptomatic RP Attacks, Change from Baseline, Median [19] | Average Severity of Weekly Symptomatic RP Attacks, Change from Baseline, Mean (Pooled Cilnidipine 10 mg and Cilnidipine 10 mg + Tadalafil 5 mg, Excluding Outliers, 1st Baseline RCS subgroup, ITT Part A, last 7 days of dosing period)
−17.81%: Average Severity of Weekly Symptomatic RP Attacks, Percent Change from Baseline, Mean [20] | Average Severity of Weekly Symptomatic RP Attacks, Percent Change from Baseline, Median [20]
2.30: Average Severity of Weekly Symptomatic RP Attacks, Mean [10] | Average Severity of Weekly Symptomatic RP Attacks, Median [10] | Average Severity of Weekly Symptomatic RP Attacks, Mean [11] | Average Severity of Weekly Symptomatic RP Attacks, Median [11] | Average Severity of Weekly RP Attacks (All Attacks), Mean [12] | Average Severity of Weekly RP Attacks (All Attacks), Median [12] | Average Severity (0-10) of weekly RP attacks, Mean [13] | Average Severity (0-10) of weekly RP attacks, Median [13] | Average Severity (0-10) of weekly RP attacks, Mean [14] | Average Severity (0-10) of weekly RP attacks, Median [14] | Average Severity (0-10) of weekly RP attacks, Mean [15] | Average Severity (0-10) of weekly RP attacks, Median [15] | Average Severity of Weekly Symptomatic RP Attacks, Mean [17] | Average Severity of Weekly Symptomatic RP Attacks, Median [17] | Average Severity of Weekly Symptomatic RP Attacks, Mean [18] | Average Severity of Weekly Symptomatic RP Attacks, Median [18]
3.77: Average Severity of Weekly Symptomatic RP Attacks, Mean [1] | Average Severity of Weekly Symptomatic RP Attacks, Median [1] | Average Severity of Weekly Symptomatic RP Attacks, Mean [2] | Average Severity of Weekly Symptomatic RP Attacks, Median [2] | Average Severity of Weekly Symptomatic RP Attacks, Mean [8] | Average Severity of Weekly Symptomatic RP Attacks, Median [8] | Average Severity of Weekly Symptomatic RP Attacks, Mean [9] | Average Severity of Weekly Symptomatic RP Attacks, Median [9]
